These results are taken from US20140357487A1, “PLANTS HAVING INCREASED TOLERANCE TO HERBICIDES” (BASF SE, priority 2011, published 2014).

What all share (conditions): normalized on Arabidopsis wild-type HPPD
One assay deals with Avena HPPD. The assay can be described thus: HPPD activity assay, Avena HPPD. In kind it is biochemical, Avena sativa. Here is the method: (§1) HPPD produces homogentisic acid and CO2 from 4-hydroxyphenylpyruvate (4-HPP) and O2. The activity assay for HPPD is based on the analysis of homogentisic acid by reversed phase HPLC.
(§2) The assay mixture can contain 150 mM potassium phosphate buffer pH 7.0, 50 mM L-ascorbic acid, 1 μM FeSO4 and 7 μg of purified enzyme in a total volume of 1 ml.
(§3) Inhibitors are dissolved in DMSO (dimethylsulfoxide) to a concentration of 20 mM or 0.5 mM, respectively. From this stock solution serial five-fold dilutions are prepared in DMSO, which are used in the assay. The respective inhibitor solution accounts for 1% of the assay volume. Thus, final inhibitor concentrations range from 200 μM to 2.5 nM or from 5 μM to 63 pM, respectively. After a preincubation of 30 min the reaction is started by adding 4-HPP to a final concentration of 0.1 mM. The reaction is allowed to proceed for 120 min at room temperature. The reaction is stopped by addition of 100 μl of 4.5 M phosphoric acid.
(§4) Activities are normalized by setting the uninhibited enzyme activity to 100%. IC50 values are calculated using non-linear regression.
(§5) The assay mixture can contain 150 mM potassium phosphate buffer pH 7.0, 50 mM L-ascorbic acid, 100 μM Catalase (Sigma-Aldrich), 1 μM FeSO4 and 0.2 units of purified HPPD enzyme in a total volume of 505 μl. 1 unit is defined as the amount of enzyme that is required to produce 1 nmol of HGA per minute at 20° C.
(§6) Inhibitors are dissolved in DMSO (dimethylsulfoxide) to a concentration of 0.5 mM. From this stock solution serial five-fold dilutions are prepared in DMSO, which are used in the assay. The respective inhibitor solution accounts for 1% of the assay volume. Thus, final inhibitor concentrations range from 5 μM to 320 pM, respectively. Activities are normalized by setting the uninhibited enzyme activity to 100%. IC50 values are calculated using non-linear regression.
(§7) Using methods which are described in the above examples or well known in the art, purified, recombinant wildtype HPPD enzymes are characterized with respect to their kinetic properties and sensitivity towards HPPD inhibiting herbicides. Apparent michaelis constants (Km) and maximal reaction velocities (Vmax) are calculated by non-linear regression with the software GraphPad Prism 5 (GraphPad Software, La Jolla, USA) using a substrate inhibition model. […] Weighted means (by standard error) of Km and […] values are calculated from at least three independent experiments. […]
(§8) Field performance of the HPPD enzyme, which is used as a herbicide tolerance trait, may depend not only on its lack of sensitivity towards HPPD inhibiting herbicides but also on its activity. To assess the potential performance of a herbicide tolerance trait a tolerance index (TI) is calculated using the following formula: […]

The test system of another assay is Sorghum HPPD. The assay is described as follows: HPPD activity assay, Sorghum HPPD. In kind it is biochemical. Here is the method: as §1, §2, §3, §4
(§9) The assay mixture can contain 150 mM potassium phosphate buffer pH 7.0, 50 mM L-ascorbic acid, 100 μM Catalase (Sigma-Aldrich), 1 μM FeSO4 and 0.2 units of purified HPPD enzyme in a total volume of 505 μl. […]
(§10) Inhibitors are dissolved in DMSO (dimethylsulfoxide) to a concentration of 0.5 mM. […] IC50 values are calculated using non-linear regression.
as §7

For the next assay, the system named is Poa HPPD. The assay can be described thus: HPPD activity assay, Poa HPPD. Type of assay: biochemical. As for the experimental part: as §1, §2, §3, §4, §9, §10, §7
For another assay, the system named is Lolium HPPD. The assay is described as follows: HPPD activity assay, Lolium HPPD. Type of assay: biochemical. Here is the method: as §1, §2, §3, §4, §5, §6, §7, §8
For assay [1], the target named is T1, Arabidopsis HPPD (SEQ ID: 53) (Arabidopsis thaliana, UniProt P93836).
T1 construct: His6 (N); made in house; host or cells: E. coli BL21 (DE3)
T1 sequence (P93836 1-445): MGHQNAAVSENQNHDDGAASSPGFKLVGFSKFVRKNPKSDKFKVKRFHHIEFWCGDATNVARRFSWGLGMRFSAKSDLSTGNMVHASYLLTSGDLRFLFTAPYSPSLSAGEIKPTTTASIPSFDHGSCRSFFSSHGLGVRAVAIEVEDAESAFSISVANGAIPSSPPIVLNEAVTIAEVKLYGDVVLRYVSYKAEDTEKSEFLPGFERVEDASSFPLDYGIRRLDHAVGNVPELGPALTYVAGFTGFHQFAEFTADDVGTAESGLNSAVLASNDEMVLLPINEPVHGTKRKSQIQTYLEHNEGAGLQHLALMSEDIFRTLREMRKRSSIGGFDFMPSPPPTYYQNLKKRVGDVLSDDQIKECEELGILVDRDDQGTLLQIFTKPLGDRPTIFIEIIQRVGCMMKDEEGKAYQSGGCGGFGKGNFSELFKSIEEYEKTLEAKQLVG
The assay is described as follows: HPPD activity assay, Arabidopsis wild-type HPPD. Type of assay: biochemical. The arrangement: key to Normalized tolerance index TI: tolerance index relative to Arabidopsis wild-type HPPD (= 1). As for the experimental part:
as §1, §2
(§11) Inhibitors are dissolved in DMSO (dimethylsulfoxide) to a concentration of 20 mM or 0.5 mM, respectively. From this stock solution serial five-fold dilutions are prepared in DMSO, which are used in the assay. The respective inhibitor solution accounts for 1% of the assay volume. […] After a preincubation of 30 min the reaction is started by adding 4-HPP to a final concentration of 0.1 mM. The reaction is allowed to proceed for 120 min at room temperature. The reaction is stopped by addition of 100 μl of 4.5 M phosphoric acid.
as §4, §5
Inhibitors are dissolved in DMSO (dimethylsulfoxide) to a concentration of 0.5 mM. From this stock solution serial five-fold dilutions are prepared in DMSO, which are used in the assay. The respective inhibitor solution accounts for 1% of the assay volume. […] Activities are normalized by setting the uninhibited enzyme activity to 100%. IC50 values are calculated using non-linear regression.
Using methods which are described in the above examples or well known in the art, purified, recombinant wildtype HPPD enzymes are characterized with respect to their kinetic properties and sensitivity towards HPPD inhibiting herbicides. Apparent michaelis constants (Km) and maximal reaction velocities (Vmax) are calculated by non-linear regression with the software GraphPad Prism 5 (GraphPad Software, La Jolla, USA) using a substrate inhibition model.
as §8
Easy comparison and ranking of each trait is enabled by normalizing tolerance indexes on Arabidopsis wild-type HPPD.

A further assay has as its system Chlamydomonas HPPD1. The assay can be described thus: HPPD activity assay, Chlamydomonas HPPD1. Type of assay: biochemical, Chlamydomonas reinhardtii. Here is the method:
as §1, §2, §3, §4, §9, §10, §7

In another assay the test system is Alopecurus HPPD. The assay is described as follows: HPPD activity assay, Alopecurus HPPD. Type of assay: biochemical. As for the experimental part: as §1, §2, §3, §4, §9, §10, §7
For assay [2], the target named is T2, Arabidopsis HPPD variant M335H, P336A (Arabidopsis thaliana, UniProt P93836, M335H/P336A).
T2 construct: PCR-based site directed mutagenesis of pEXP5-NT/TOPO®-AtHPPD is done; His6 (N); made in house; host or cells: E. coli BL21 (DE3)
The assay can be described thus: HPPD activity assay, Arabidopsis HPPD mutant M335H, P336A. In kind it is biochemical. As for the experimental part:
as §1, §2, §11, §4, §5
Inhibitors are dissolved in DMSO (dimethylsulfoxide) to a concentration of 0.5 mM. […] IC50 values are calculated using non-linear regression. […]
Purified, mutant HPPD enzymes are obtained by the methods described above. […] Apparent michaelis constants (Km) and maximal reaction velocities (Vmax) are calculated by non-linear regression with the software GraphPad Prism 5 (GraphPad Software, La Jolla, USA) using a substrate inhibition model.
Field performance of the optimized HPPD enzyme, which is used as a herbicide tolerance trait may depend not only on its lack of sensitivity towards HPPD inhibiting herbicides but also on its activity. To assess the potential performance of a herbicide tolerance trait a tolerance index (TI) is calculated using the following formula: […]

T2 sequence (P93836 whole entry M335H/P336A): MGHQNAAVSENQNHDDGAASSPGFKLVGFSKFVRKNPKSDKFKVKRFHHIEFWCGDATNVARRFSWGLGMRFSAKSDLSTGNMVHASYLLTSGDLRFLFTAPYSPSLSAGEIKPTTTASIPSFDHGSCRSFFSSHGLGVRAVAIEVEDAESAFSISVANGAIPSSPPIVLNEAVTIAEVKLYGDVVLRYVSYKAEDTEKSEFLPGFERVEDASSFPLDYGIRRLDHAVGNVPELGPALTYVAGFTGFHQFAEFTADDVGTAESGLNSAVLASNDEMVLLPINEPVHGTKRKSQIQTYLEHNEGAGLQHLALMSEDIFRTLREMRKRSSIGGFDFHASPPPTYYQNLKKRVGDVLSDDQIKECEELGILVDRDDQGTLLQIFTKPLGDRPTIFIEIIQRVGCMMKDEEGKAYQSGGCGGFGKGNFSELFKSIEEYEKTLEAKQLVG

Take `CC1CC(c2c(Cl)ccc(C3=C(O)c4ncccc4CS3(=O)=O)c2Cl)=NO1` (stereo not drawn) [Inhibitor 4, 7-[2,4-dichloro-3-(5-methyl-4,5-dihydroisoxazol-3-yl)phenyl]-6,6-dioxo-5H-thiopyrano[4,3-b]pyridin-8-ol]: the “Normalized tolerance index TI” value worked out at 5.3 in the assay on Avena HPPD; 3.7 with Sorghum HPPD; 1.2 in the assay with Poa HPPD; 4.5 in the assay on Lolium HPPD; 1 in assay [1] (Arabidopsis HPPD Wildtype, Table 15); 1 in assay [1] (Arabidopsis HPPD, Table 12). The “Normalized tolerance index TI” value in the assay with Chlamydomonas HPPD1 worked out at 1.3; in the assay on Alopecurus HPPD it was 3.5; in assay [2], 7.4.
